Results: patent US20140213576A1, “NOVEL COMPOUND USEFUL FOR THE TREATMENT OF DEGENERATIVE AND INFLAMMATORY DISEASES” (GALAPAGOS NV, priority 2013, published 2014)

System: HeLa cells
Assay: JAK-STAT signalling assay (OSM-triggered pSTAT1(2)-luciferase reporter)
Format: cell-based
Conditions: human OSM 33 ng/mL, STAT1 luciferase reporter, individual determinations
Procedure: HeLa cells were maintained in Dulbecco's Modified Eagle's Medium (DMEM) containing 10% heat inactivated fetal calf serum, 100 U/mL penicillin and 100 μg/mL streptomycin. HeLa cells were used at 70% confluence for transfection. 20,000 cells in 87 μL cell culture medium were transiently transfected with 40 ng pSTAT1(2)-luciferase reporter (Panomics), 8 ng of LacZ reporter as internal control reporter and 52 ng of pBSK using 0.32 μL Jet-PEI (Polyplus) as transfection reagent per well in 96-well plate format. After overnight incubation at 37° C., 5% CO2, transfection medium was removed. 81 μL of DMEM+1.5% heat inactivated fetal calf serum was added. […]
40 μL of cell lysate was used to read β-galactosidase activity by adding 180 μL β-Gal solution (30 μL ONPG 4 mg/mL+150 μL β-Galactosidase buffer (0.06 M Na2HPO4, 0.04 M NaH2PO4, 1 mM MgCl2)) for 20 min. The reaction was stopped by addition of 50 μL Na2CO3 1 M. Absorbance was read at 405 nm.
Luciferase activity was measured using 40 μL cell lysate plus 40 μL of Steadylite® as described by the manufacturer (Perkin Elmer), on the Envision (Perkin Elmer). […]
Percentage inhibition=((fluorescence determined in the presence of vehicle−fluorescence determined for sample with test compound present) divided by (fluorescence determined in the presence of vehicle−fluorescence determined for sample without trigger))[…]. […]

Structure (SMILES): CCc1cc(C2CN(S(C)(=O)=O)C2)ncc1N(C)c1cc2c(cn1)ncn2C [Compound 1, [4-Ethyl-6-(1-methanesulfonyl-azetidin-3-yl)-pyridin-3-yl]-methyl-(1-methyl-1H-imidazo[4,5-d]pyridin-6-yl)-amine]
- IC50 (Homo sapiens, HeLa): 1650 nM
- IC50 (listed as compound of the invention): 1660 nM
